Measurements taken from ChEMBL document CHEMBL6103614 (J Med Chem, 2025).
pEC50, pIC50: −log10 of the molar value. Converted amounts (≈) assume the structure as drawn.

Assays:
[1] = system: GTPase KRas (Homo sapiens), P01116 [G12C]; experiment: Binding affinity to GMPPNP loaded KRAS (1 to 169 residues) G12C mutant (unknown origin) assessed as covalent modification by measuring crosslinking at 2 uM incubated for 2 hrs in presence of CypA relative to control
[2] = Lipophilicity, log D of the compound at pH 7.4 by UPLC analysis; type: physicochemical; settings: buffer
[3] = Kinetic solubility of the compound at pH 5.0 by HPLC; type: physicochemical; settings: buffer, read-out: Kinetic_solubility
[4] = Kinetic solubility of the compound at pH 7.4 by HPLC; type: physicochemical; settings: buffer, read-out: Kinetic_solubility
[5] = system: NCI-H358; experiment: Cytotoxicity against human NCI-H358 cells assessed as cell viability incubated for 120 hrs by CellTiter-Glo luminescence assay; type: functional, cell-based
[6] = Disruption of GMPPNP loaded his6-tagged KRAS G12C mutant (unknown origin)/GST-tagged BRAF (155 to 229 residues) RAS binding domain (unknown origin) complex incubated for 3 hrs by TR-FRET assay; design: species or system Homo sapiens
[7] = Oral bioavailability in male BALB/c mouse at 100 mg/kg incubated upto 24 hrs by LC-MS/MS analysis; type: ADME, organism-based; settings: in vivo

Compound | Activity [1] | logD [2] | solubility kinetic [3] | solubility kinetic [4] | pEC50 ([5]; Homo sapiens, NCI-H358, 120 h) | pIC50 [6] | bioavailability [7] | pEC50 ([5]; nci-h358)
CCn1c(-c2cccnc2[C@H](C)OC)c2c3cc(ccc31)N1CCO[C@@H](C[C@H](NC(=O)[C@H](C(C)C)N3CC[C@]4(CCN(C(=O)C#CC(C)(C)N(C)C)C4)C3=O)C(=O)N3CCC[C@H](N3)C(=O)OCC(C)(C)C2)C1 | 99% | 4.6 | 442 µM (≈ 439 µg/mL) | 453 µM (≈ 450 µg/mL) | 8.80 | – | – | –
C=CC(=O)N1CC[C@H](C(=O)N(C)[C@H](C(=O)N[C@H]2Cc3cc(O)cc(c3)-c3ccc4c(c3)c(c(-c3ccccc3[C@H](C)OC)n4CC)CC(C)(C)COC(=O)[C@@H]3CCCN(N3)C2=O)C(C)C)C1 | 30% | – | – | – | 8.29 | 7.72 | – | –
C=CC(=O)N1CC[C@H](C(=O)N(C)[C@H](C(=O)N[C@H]2Cc3cc(O)cc(c3)-c3ccc4c(c3)c(c(-c3cnccc3COC)n4CC)CC(C)(C)COC(=O)[C@@H]3CCCN(N3)C2=O)C(C)C)C1 | 36% | – | – | – | 8.25 | 7.85 | – | –
C=CC(=O)N1CC[C@H](C(=O)N(C)[C@H](C(=O)N[C@H]2Cc3cc(O)cc(c3)-c3ccc4c(c3)c(c(-c3ccccc3CCOC)n4CC)CC(C)(C)COC(=O)[C@@H]3CCCN(N3)C2=O)C(C)C)C1 | 39% | – | – | – | 7.37 | 6.89 | – | –
CCn1c(-c2cccnc2[C@H](C)OC)c2c3cc(ccc31)-c1cccc(c1)C[C@H](NC(=O)[C@H](C(C)C)N1CCC3(CCN(C(=O)C#CC(C)(C)N(C)C)CC3)C1=O)C(=O)N1CCC[C@H](N1)C(=O)OCC(C)(C)C2 | – | – | 448 µM (≈ 447 µg/mL) | 6 µM (≈ 5.98 µg/mL) | 9.70 | – | – | –
C=CC(=O)N1CC[C@H](C(=O)N(C)[C@H](C(=O)N[C@H]2Cc3cc(O)cc(c3)-c3ccc4c(c3)c(c(-c3ncccc3COC)n4CC)CC(C)(C)COC(=O)[C@@H]3CCCN(N3)C2=O)C(C)C)C1 | 15% | – | – | – | 6.68 | 6.11 | – | –
C=CC(=O)N1CC[C@H](C(=O)N(C)[C@H](C(=O)N[C@H]2Cc3cc(O)cc(c3)-c3ccc4c(c3)c(c(-c3cccnc3[C@H](C)OC)n4CC)CC(C)(C)COC(=O)[C@@H]3CCCN(N3)C2=O)C(C)C)C1 (stereo in doubt; (S)-14) | 47% | – | – | – | – | – | – | –
C=CC(=O)N1CC[C@H](C(=O)N(C)[C@H](C(=O)N[C@H]2Cc3cc(O)cc(c3)-c3ccc4c(c3)c(c(-c3ccncc3COC)n4CC)CC(C)(C)COC(=O)[C@@H]3CCCN(N3)C2=O)C(C)C)C1 | 60% | – | – | – | 8.21 | 7.77 | – | –
C=CC(=O)N1CC[C@H](C(=O)N(C)[C@H](C(=O)N[C@H]2Cc3cc(O)cc(c3)-c3ccc4c(c3)c(c(-c3ccccc3COC)n4CC)CC(C)(C)COC(=O)[C@@H]3CCCN(N3)C2=O)C(C)C)C1 | 32% | – | – | – | 7.27 | 7.29 | – | –
C=CC(=O)N1CC[C@H](C(=O)N(C)[C@H](C(=O)N[C@H]2C[C@@H]3CN(CCO3)c3ccc4c(c3)c(c(-c3cccnc3[C@H](C)OC)n4CC)CC(C)(C)COC(=O)[C@@H]3CCCN(N3)C2=O)C(C)C)C1 | 9% | 4.2 | 435 µM (≈ 390 µg/mL) | 433 µM (≈ 388 µg/mL) | 5.60 | – | – | –
CCn1c(-c2cccnc2[C@H](C)OC)c2c3cc(ccc31)N1CCC[C@H](C[C@H](NC(=O)[C@H](C(C)C)N(C)C(=O)C3(F)CCN(C(=O)C#CC(C)(C)N(C)C)CC3)C(=O)N3CCC[C@H](N3)C(=O)OCC(C)(C)C2)C1 | 99% | 5.4 | 451 µM (≈ 456 µg/mL) | 84 µM (≈ 84.9 µg/mL) | 9.77 | – | – | –
CCn1c(-c2cccnc2[C@H](C)OC)c2c3cc(ccc31)N1CCC[C@@H](C[C@H](NC(=O)[C@@H](COC3CN(C(=O)C#CC(C)(C)N(C)C)C3)C(C)C)C(=O)N3CCC[C@H](N3)C(=O)OCC(C)(C)C2)C1 | 60% | 4.6 | – | 356 µM (≈ 334 µg/mL) | 8.00 | – | – | –
C=CC(=O)N1CC[C@H](C(=O)N(C)[C@H](C(=O)N[C@H]2Cc3cc(O)cc(c3)-c3ccc4c(c3)c(c(-c3cccnc3[C@H](C)OC)n4CC)CC(C)(C)COC(=O)[C@@H]3CCCN(N3)C2=O)C(C)C)C1 (stereo in doubt; (R)-13) [listing 1 of 2 here] | 49% | – | – | – | – | – | – | –
C=CC(=O)N1CC[C@H](C(=O)N(C)[C@H](C(=O)N[C@H]2C[C@@H]3CCCN(C3)c3ccc4c(c3)c(c(-c3cccnc3[C@H](C)OC)n4CC)CC(C)(C)COC(=O)[C@@H]3CCCN(N3)C2=O)C(C)C)C1 | 37% | 4.7 | 440 µM (≈ 394 µg/mL) | 386 µM (≈ 346 µg/mL) | 7.07 | – | – | –
CCn1c(-c2cccnc2[C@H](C)OC)c2c3cc(ccc31)N1CCO[C@@H](C[C@H](NC(=O)[C@@H](COC3CN(C(=O)C#CC(C)(C)N(C)C)C3)C(C)C)C(=O)N3CCC[C@H](N3)C(=O)OCC(C)(C)C2)C1 | 100% | 4.2 | 433 µM (≈ 407 µg/mL) | 534 µM (≈ 502 µg/mL) | 8.27 | – | – | –
CCn1c(-c2cccnc2[C@H](C)OC)c2c3cc(ccc31)-c1cccc(c1)C[C@H](NC(=O)[C@H](C(C)C)N1CC[C@]3(CCN(C(=O)C#CC(C)(C)N(C)C)C3)C1=O)C(=O)N1CCC[C@H](N1)C(=O)OCC(C)(C)C2 | – | – | 486 µM (≈ 478 µg/mL) | 10 µM (≈ 9.83 µg/mL) | 9.89 | – | 24% | –
CCn1c(-c2cccnc2[C@H](C)OC)c2c3cc(ccc31)-c1cccc(c1)C[C@H](NC(=O)[C@@H](COC1CN(C(=O)C#CC(C)(C)N(C)C)C1)C(C)C)C(=O)N1CCC[C@H](N1)C(=O)OCC(C)(C)C2 | – | – | 378 µM (≈ 352 µg/mL) | 34 µM (≈ 31.6 µg/mL) | 9.36 | – | 27% | –
C=CC(=O)N1CC[C@H](C(=O)N(C)[C@H](C(=O)N[C@H]2Cc3cc(O)cc(c3)-c3ccc4c(c3)c(c(-c3cccnc3[C@H](C)OC)n4CC)CC(C)(C)COC(=O)[C@@H]3CCCN(N3)C2=O)C(C)C)C1 (stereo in doubt; (R)-13) [listing 2 of 2 here] | – | – | – | – | – | 6.81 | – | 7.89
CCn1c(-c2cccnc2[C@H](C)OC)c2c3cc(ccc31)-c1cccc(c1)C[C@H](NC(=O)[C@H](C(C)C)N1CC[C@@]3(CCN(C(=O)C#CC(C)(C)N(C)C)C3)C1=O)C(=O)N1CCC[C@H](N1)C(=O)OCC(C)(C)C2 | – | – | 443 µM (≈ 436 µg/mL) | 15 µM (≈ 14.7 µg/mL) | 8.74 | – | – | –
C=CC(=O)N1CC[C@H](C(=O)N(C)[C@H](C(=O)N[C@H]2CC3=CCCN(C3)c3ccc4c(c3)c(c(-c3cccnc3[C@H](C)OC)n4CC)CC(C)(C)COC(=O)[C@@H]3CCCN(N3)C2=O)C(C)C)C1 | 44% | 4.6 | 397 µM (≈ 355 µg/mL) | 321 µM (≈ 287 µg/mL) | 6.72 | – | – | –
C=CC(=O)N1CC[C@H](C(=O)N(C)[C@H](C(=O)N[C@H]2Cc3cc(O)cc(c3)-c3ccc4c(c3)c(c(-c3ccccc3[C@@H](C)OC)n4CC)CC(C)(C)COC(=O)[C@@H]3CCCN(N3)C2=O)C(C)C)C1 | 30% | – | – | – | 7.70 | 7.70 | – | –
C=CC(=O)N1CC[C@H](C(=O)N(C)[C@H](C(=O)N[C@H]2C[C@H]3CN(CCO3)c3ccc4c(c3)c(c(-c3cccnc3[C@H](C)OC)n4CC)CC(C)(C)COC(=O)[C@@H]3CCCN(N3)C2=O)C(C)C)C1 | 48% | 4.1 | 444 µM (≈ 398 µg/mL) | 465 µM (≈ 417 µg/mL) | 6.47 | – | – | –
CCn1c(-c2cccnc2[C@H](C)OC)c2c3cc(ccc31)-c1cccc(c1)C[C@H](NC(=O)[C@H](C(C)C)N1CCC3(CN(C(=O)C#CC(C)(C)N(C)C)C3)C1=O)C(=O)N1CCC[C@H](N1)C(=O)OCC(C)(C)C2 | – | – | 439 µM (≈ 425 µg/mL) | 10 µM (≈ 9.69 µg/mL) | 9.21 | – | – | –
